Laboratory results as given in US7786152B2, “Compound” (priority 2002, dated 2010).

Biological target: T1, 11 β-HSD type 2 (Rattus norvegicus, UniProt P50233)
T1 construct: Both the kidneys and livers were homogenised on ice in PBS-sucrose buffer; tissue Harlan Olac (rats); host or cells: Wistar rat kidney homogenate supernatant
T1 sequence (P50233 1-400): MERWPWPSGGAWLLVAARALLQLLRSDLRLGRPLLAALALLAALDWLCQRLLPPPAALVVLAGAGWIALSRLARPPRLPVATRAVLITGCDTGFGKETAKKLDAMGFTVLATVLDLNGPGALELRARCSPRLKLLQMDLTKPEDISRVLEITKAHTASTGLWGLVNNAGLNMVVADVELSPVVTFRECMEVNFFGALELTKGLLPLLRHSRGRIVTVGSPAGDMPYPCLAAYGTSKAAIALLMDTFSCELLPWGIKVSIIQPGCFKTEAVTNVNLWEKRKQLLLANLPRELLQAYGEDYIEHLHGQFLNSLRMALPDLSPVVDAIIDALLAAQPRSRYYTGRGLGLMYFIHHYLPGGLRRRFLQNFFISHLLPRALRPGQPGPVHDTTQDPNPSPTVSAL
Test: 11 β-HSD type 2 inhibition, rat kidney homogenate, conversion F to E (radiometric TLC)
Format: biochemical
Settings: read-out: % inhibition of 11β HSD2 @ 10 μM, typical sd ± 5%, means n=2
Description: Enzymes—Rat livers and rat kidneys were obtained from normal Wistar rats (Harlan Olac, Bicester, Oxon, UK). Both the kidneys and livers were homogenised on ice in PBS-sucrose buffer (1 g/10 ml) using an Ultra-Turrax. After the livers and kidneys were homogenised the homogenate was centrifuged for five minutes at 4000 rpm. The supernatant obtained was removed and stored in glass vials at −20° C. The amount of protein per μl of rat liver and kidney cytosol was determined using the Bradford method.
The same procedure was used for the 11 β-HSD type 2 assay, the conversion F to E, to determine the amount of rat kidney to be used and the incubation time. Except this time the substrate solution contained ^3H—F and unlabelled F and the recovery contained ^14C-E and unlabelled E and cortisone has a Rf value of 0.65 on the TLC-plate.
In these assays the influence of different inhibitors on the 11 β-HSD activity both in reductive (type 1) and oxidative (type 2) directions were assessed. In the reductive direction E is the substrate and F the product and visa versa in the case of oxidation. The method described here is for the oxidative direction.
The substrate solution contained about 50,000 cpm/ml ^3H—F in PBS-sucrose and 0.5 μM F. 1 ml of the substrate solution was added to each tube, the inhibitors were also added, at a 10 μM concentration, to each tube except to the “control” and “blank” tubes. 150 μL was added to all tubes except to the blanks, this was done to correct for the amount of ^3H—F spontaneously formed. The tubes were incubated for 60 minutes in a mechanically shaken water bath at 37° C. The amount of kidney liver homogenate and incubation time used resulted from the enzyme- and time-dependency assay. After incubation 50 μL of recovery was added to correct for the losses made in the next steps, containing 5000 cpm/50 μL of ^14C-E and 50 μg/50 μL of unlabelled E (to visualise the spot on the TLC-plate). The aqueous mixture was then extracted with 4 ml of ether (2×30 sec cycle, vortex mix). After freezing the aqueous phase, the ether (upper) layer was decanted into smaller tubes and evaporated at 45° C. until completely dry. The residue was then re-dissolved in 6 drops of ether and transferred to a TLC-plate. The TLC-plate was developed in chloroform:methanol (9:1 v/v) solvent system, the TLC-plate ran for about 90 minutes until the solvent front had moved about 18 cm. The position of the product E was visualised under UV-light and cut out from the TLC-plate and put into scintillation vials. Radioactivity was eluted over 5 minutes with 0.5 ml methanol. 0.5 ml of PBS-sucrose and 10 ml of Ecoscint were then added and vortex mixed before counting in the scintillation counter. Before counting the samples, two total activity vials were prepared. These contained 0.5 ml of the substrate solution, 50 μL of the recovery, 0.5 ml of methanol and 10 ml of Ecoscint. These two total activity vials were needed to determine the amount of ^14C-E and ^3H—F added in the beginning to make the calculations.
To look at the percentage of inhibition four different concentrations, 1, 5, 10 and 20 μM, were used. The method for both the rat liver, type 1 the reductive, and rat kidney, type 2 the oxidative, stay the same throughout the entire experiment.
In this experiment the amount of rat liver homogenate and rat kidney homogenate added to each tube and the incubation time was determined. […] After drawing the graphs the optimal amount of rat liver cytosol and rat kidney cytosol and both their incubation times were selected. One important rule when selecting both variables, to select an amount of rat liver and rat kidney and incubation time on a linear part of the graph. This is done to avoid fluctuations in enzyme activity. The amount of rat liver cytosol selected was 25 μL and 90 minutes of incubation time, the amount of rat kidney cytosol selected was 150 μL and 60 minutes of incubation time. […]

Cc1nc2cc(NS(=O)(=O)c3ccc(Br)cc3)ccc2s1 [compound 519]
inhibition at 10 µM: 8%

COc1ccc(S(=O)(=O)Nc2ccc3sc(C)nc3c2)cc1 [compound 424]
inhibition at 10 µM: 0.7%

Cc1nc2cc(NS(=O)(=O)c3ccc(Cl)cc3Cl)ccc2s1 [compound 412]
inhibition at 10 µM: 3%

Cc1nc2cc(NS(=O)(=O)c3cccc(Cl)c3C)ccc2s1 [compound 413]
inhibition at 10 µM: 0.2%

Cc1nc2cc(NS(=O)(=O)c3c(C)c(C)c(C)c(C)c3C)ccc2s1 [compound 710]
inhibition at 10 µM: 10%

COc1cc(C)ccc1S(=O)(=O)Nc1ccc2sc(C)nc2c1 [compound 584]
inhibition at 10 µM: 10%

Cc1nc2cc(NS(=O)(=O)c3ccc4c(c3)CN(C(=O)C(F)(F)F)CC4)ccc2s1 [compound 581]
inhibition at 10 µM: 32%

Cc1nc2cc(NS(=O)(=O)c3ccc(C(C)(C)C)cc3)ccc2s1 [compound 709]
inhibition at 10 µM: 13%

Cc1nc2cc(NS(=O)(=O)c3cccc4cccnc34)ccc2s1 [compound 552]
inhibition at 10 µM: 24%

Cc1nc2cc(NS(=O)(=O)c3ccc(Br)cc3C)ccc2s1 [compound 523]
inhibition at 10 µM: 8%

Cc1nc2cc(NS(=O)(=O)c3c(Cl)cc(Cl)cc3Cl)ccc2s1 [compound 522]
inhibition at 10 µM: 6%

Cc1nc2cc(NS(=O)(=O)c3cccc4c(N(C)C)cccc34)ccc2s1 [compound 554]
inhibition at 10 µM: 43%

Cc1nc2cc(NS(=O)(=O)c3cccc4ccccc34)ccc2s1 [compound 553]
inhibition at 10 µM: 18%

CC(=O)c1ccccc1S(=O)(=O)Nc1ccc2sc(C)nc2c1 [compound 701]
inhibition at 10 µM: 36%

COc1c(C)c(C)c(S(=O)(=O)Nc2ccc3sc(C)nc3c2)c(C)c1C [compound 708]
inhibition at 10 µM: 11%

Cc1nc2cc(NS(=O)(=O)c3c(C(C)C)cc(C(C)C)cc3C(C)C)ccc2s1 [compound 703]
inhibition at 10 µM: 4%

Cc1nc2cc(NS(=O)(=O)c3ccc(C(C)C)cc3)ccc2s1 [compound 704]
inhibition at 10 µM: 4%

COC(=O)c1ccccc1S(=O)(=O)Nc1ccc2sc(C)nc2c1 [compound 705]
inhibition at 10 µM: 6%

Cc1nc2cc(NS(=O)(=O)c3c(C)cccc3Cl)ccc2s1 [compound 425]
inhibition at 10 µM: 0%

Cc1nc2cc(N(C)S(=O)(=O)c3cccc(Cl)c3C)ccc2s1 [compound 469]
inhibition at 10 µM: 29%

Cc1nc2cc(NS(=O)(=O)c3ccc(-c4ccccc4)cc3)ccc2s1 [compound 521]
inhibition at 10 µM: 5%

CCCc1ccc(S(=O)(=O)Nc2ccc3sc(C)nc3c2)cc1 [compound 421]
inhibition at 10 µM: 0.9%

CCN(c1ccc2sc(C)nc2c1)S(=O)(=O)c1cccc(Cl)c1C [compound 470]
inhibition at 10 µM: 30%

Cc1nc2cc(NS(=O)(=O)c3ccccc3C#N)ccc2s1 [compound 583]
inhibition at 10 µM: 0.4%

CCSc1nc2ccc(NS(=O)(=O)c3cccc(Cl)c3C)cc2s1 [compound 751]
inhibition at 10 µM: 5%

Cc1nc2cc(NS(=O)(=O)c3cc(Cl)ccc3Cl)ccc2s1 [compound 580]
inhibition at 10 µM: 1.4%

COc1ccc(Cl)cc1S(=O)(=O)Nc1ccc2sc(C)nc2c1 [compound 582]
inhibition at 10 µM: 0.7%

Cc1nc2cc(NS(=O)(=O)c3ccc(Oc4ccccc4)cc3)ccc2s1 [compound 585]
inhibition at 10 µM: 1.6%
